≈ marks a conversion by molar mass, not a printed value.
Key:
Type in all cases: cell-based
[1] = test system: Fusobacteriumnecrophroum ATCC 27852 LRP 210; assay: Bacteriostatic power in solid medium (MIC); conditions: solid medium; anaerobic; read-out: Minimum inhibiting concentration
Source text: (§1) the bacteriostatic power, expressed as the minimum inhibiting concentration (MIC) against both aerobic and anaerobic, Gram positive and Gram negative, bacterial stocks: the related results are reported in the tables 2 and 3.

[2] = test system: Streptococcus faecalis subsp. zymogenes ATCC 12958 LRP 61; assay: Bacteriostatic power in solid medium (MIC); conditions: Enterococcus faecalis, ATCC12958; solid medium; read-out: Minimum inhibiting concentration
Source text: as §1

[3] = test system: Mycoplasma hominis I ATCC 14027 LRP 211; assay: Bacteriostatic power in solid medium (MIC); conditions: Metamycoplasma hominis, ATCC14027; solid medium; read-out: Minimum inhibiting concentration
Source text: as §1

[4] = test system: Streptococcus pyogenes ATCC 8668 LRP 34; assay: Bacteriostatic power in solid medium (MIC); conditions: Streptococcus pyogenes, ATCC8668; solid medium; read-out: Minimum inhibiting concentration
Source text: as §1

[5] = test system: Micrococcus luteus ATCC 9341 LRP 6; assay: Bacteriostatic power in solid medium (MIC); conditions: Micrococcus luteus, ATCC9341; solid medium; read-out: Minimum inhibiting concentration
Source text: as §1

[6] = test system: Streptococcus pneumoniae ATCC 6303 LRP 35; assay: Bacteriostatic power in solid medium (MIC); conditions: Streptococcus pneumoniae, ATCC6303; solid medium; read-out: Minimum inhibiting concentration
Source text: as §1

[7] = test system: Micrococcus luteus ATCC 15957 LRP 193; assay: Bacteriostatic power in solid medium (MIC); conditions: Micrococcus luteus, ATCC15957; solid medium; Erythromycin resistant; read-out: Minimum inhibiting concentration
Source text: as §1

[8] = test system: Streptococcus faecalis LRP 7; assay: Bacteriostatic power in solid medium (MIC); conditions: Enterococcus faecalis, LRP7; solid medium; read-out: Minimum inhibiting concentration
Source text: as §1

[9] = test system: Klelsiella pneumoniae LRP 54; assay: Bacteriostatic power in solid medium (MIC); conditions: solid medium; read-out: Minimum inhibiting concentration
Source text: as §1

[10] = test system: Streptococcus pyogenes ATCC 8668 LRP 197; assay: Bacteriostatic power in solid medium (MIC); conditions: Streptococcus pyogenes, ATCC8668; solid medium; read-out: Minimum inhibiting concentration
Source text: as §1

[11] = test system: Staphylococcus aureus ATCC 14154 LRP 78; assay: Bacteriostatic power in solid medium (MIC); conditions: Staphylococcus aureus, ATCC14154, read-out: Minimum inhibiting concentration
Source text: as §1

[12] = test system: Staphylococcus aureus ATCC 6538P LRP 39; assay: Bacteriostatic power in solid medium (MIC); conditions: Staphylococcus aureus, ATCC6538P; solid medium; read-out: Minimum inhibiting concentration
Source text: as §1

[13] = test system: Pseudomonas aeruginosa LRP 9; assay: Bacteriostatic power in solid medium (MIC); conditions: Pseudomonas aeruginosa, LRP9; solid medium; read-out: Minimum inhibiting concentration
Source text: as §1

[14] = test system: Streptococcus pneumoniae ATCC 6303 LRP 53; assay: Bacteriostatic power in solid medium (MIC); conditions: Streptococcus pneumoniae, ATCC6303; solid medium; read-out: Minimum inhibiting concentration
Source text: as §1

[15] = test system: Bacteroides fragilis ATCC 23745 LRP 205; assay: Bacteriostatic power in solid medium (MIC); conditions: Bacteroides fragilis, ATCC23745; solid medium; anaerobic; read-out: Minimum inhibiting concentration
Source text: as §1

[16] = test system: Proteus vulgaris ATCC 6380 LRP 13; assay: Bacteriostatic power in solid medium (MIC); conditions: Proteus vulgaris, ATCC6380; solid medium; read-out: Minimum inhibiting concentration
Source text: as §1

Shigella sonnei LRP 5 = assay: Bacteriostatic power in solid medium (MIC); conditions: LRP5, read-out: Minimum inhibiting concentration
Source text: as §1

[17] = test system: Staphylococcus aureus ATCC 6538P LRP 14; assay: Bacteriostatic power in solid medium (MIC); conditions: Staphylococcus aureus, ATCC6538P; solid medium; Penycilline resistant; read-out: Minimum inhibiting concentration
Source text: as §1

[18] = test system: Haemophilus influenzae ATCC 19418 LRP 213; assay: Bacteriostatic power in solid medium (MIC); conditions: Haemophilus influenzae, ATCC19418, read-out: Minimum inhibiting concentration
Source text: as §1

[19] = test system: Neisseria gonorrhoeae ATCC 19424 LRP 214; assay: Bacteriostatic power in solid medium (MIC); conditions: Neisseria gonorrhoeae, ATCC19424; solid medium; read-out: Minimum inhibiting concentration
Source text: as §1

Escherichia coli LRP 50 = assay: Bacteriostatic power in solid medium (MIC); conditions: Escherichia coli, LRP50; solid medium; read-out: Minimum inhibiting concentration
Source text: as §1

[20] = test system: Corynebacterium diphteriae LRP 24; assay: Bacteriostatic power in solid medium (MIC); conditions: Corynebacterium, LRP24; solid medium; read-out: Minimum inhibiting concentration
Source text: as §1

[21] = test system: Acholeplasma laidlawii ATCC 23206 LRP 204; assay: Bacteriostatic power in solid medium (MIC); conditions: Acholeplasma laidlawii, ATCC23206; solid medium; read-out: Minimum inhibiting concentration
Source text: as §1

Bacillus subtilis LRP 25 = assay: Bacteriostatic power in solid medium (MIC); conditions: Bacillus subtilis, LRP25; solid medium; read-out: Minimum inhibiting concentration
Source text: as §1

[22] = test system: Streptococcus pneumoniae ATCC 6303 LRP 52; assay: Bacteriostatic power in solid medium (MIC); conditions: Streptococcus pneumoniae, ATCC6303; solid medium; read-out: Minimum inhibiting concentration
Source text: as §1

[23] = test system: Staphylococcus aureus ATCC 6538 P LRP 39; assay: Minimum bactericidal concentration (MBC)
Source text: (§2) the bacterial power, expressed as the minimum bactericidal power (MBC) against some Gram positive aerobic stocks (table 5).

[24] = test system: Streptococcus pyogenes ATCC 8668 LRP 34; assay: Minimum bactericidal concentration (MBC)
Source text: as §2

[25] = test system: Streptococcus pneumoniae ATCC 6303 LRP 35; assay: Minimum bactericidal concentration (MBC)
Source text: as §2

[26] = test system: Corynebacterium diphteriae LRP 24; assay: Minimum bactericidal concentration (MBC)
Source text: as §2

[27] = test system: Streptococcus faecalis subs. zymogenes LRP 61; assay: Minimum bactericidal concentration (MBC)
Source text: as §2

[28] = test system: Staphylococcus aureus ATCC 6538 P LRP 39; assay: Bacteriostatic power in liquid medium (MIC); conditions: Staphylococcus aureus, ATCC6538; liquid medium; read-out: Minimum inhibiting concentration
Source text: as §1

[29] = test system: Streptococcus pyogenes ATCC 8668 LRP 34; assay: Bacteriostatic power in liquid medium (MIC); conditions: Streptococcus pyogenes, ATCC8668; liquid medium; read-out: Minimum inhibiting concentration
Source text: as §1

[30] = test system: Streptococcus pneumoniae ATCC 6303 LRP 35; assay: Bacteriostatic power in liquid medium (MIC); conditions: Streptococcus pneumoniae, ATCC6303; liquid medium; read-out: Minimum inhibiting concentration
Source text: as §1

[31] = test system: Streptococcus faecalis subs. zymogenes ATCC 12958 LRP 61; assay: Bacteriostatic power in liquid medium (MIC); conditions: Enterococcus faecalis, ATCC12958; liquid medium; read-out: Minimum inhibiting concentration
Source text: as §1

[32] = test system: Corynebacterium diphteriae LRP 24; assay: Bacteriostatic power in liquid medium (MIC); conditions: Corynebacterium, LRP24; liquid medium; read-out: Minimum inhibiting concentration
Source text: as §1

[33] = test system: Clostridium perfrigens ATCC 3624 LRP 206; assay: microbe, parasite or virus in culture; conditions: ATCC3624, solid medium, anaerobic, read-out: Minimum inhibiting concentration
Source text: as §1

Salmonella typhy LRP 8 = assay: microbe, parasite or virus in culture; conditions: LRP8, solid medium, read-out: Minimum inhibiting concentration
Source text: as §1

CC[C@H]1OC(=O)[C@H](C)[C@@H](O[C@H]2C[C@@](C)(OC)[C@@H](O)[C@H](C)O2)[C@H](C)[C@@H](O[C@@H]2O[C@H](C)C[C@H](N(C)C)[C@H]2O)[C@](C)(O)C[C@@H](C)C(=O)[C@H](C)[C@@H](O)[C@H]1C [Erythromycin B, reference compound] was tested, and the MIC [1] was 6.25 µg/mL (≈ 8.71 µM), the MIC [2] was 0.195 µg/mL (≈ 0.272 µM) and the MIC [3] was 25 µg/mL (≈ 34.8 µM). For the same compound, the MIC [4] was 0.024 µg/mL (≈ 0.0334 µM), the MIC [5] was 0.006 µg/mL (≈ 0.00836 µM) and the MIC [6] was 0.024 µg/mL (≈ 0.0334 µM). It also gave an MIC [7] of 25 µg/mL (≈ 34.8 µM), an MIC [8] of 0.195 µg/mL (≈ 0.272 µM) and an MIC [9] of 25 µg/mL (≈ 34.8 µM). For the same compound, the MIC [10] was 0.024 µg/mL (≈ 0.0334 µM), the MIC [11] was 25 µg/mL (≈ 34.8 µM) and the MIC [12] was 0.097 µg/mL (≈ 0.135 µM). It also gave an MIC [13] of 25 µg/mL (≈ 34.8 µM), an MIC [14] of 0.024 µg/mL (≈ 0.0334 µM) and an MIC [15] of 0.195 µg/mL (≈ 0.272 µM). It also gave an MIC [16] of 25 µg/mL (≈ 34.8 µM), an MIC (Shigella sonnei LRP 5) of 25 µg/mL (≈ 34.8 µM) and an MIC [17] of 0.195 µg/mL (≈ 0.272 µM). The MIC [18] was 6.25 µg/mL (≈ 8.71 µM), the MIC [19] was 0.097 µg/mL (≈ 0.135 µM) and the MIC (Escherichia coli LRP 50) was 25 µg/mL (≈ 34.8 µM). The MIC [20] was 0.012 µg/mL (≈ 0.0167 µM), the MIC [21] was 0.097 µg/mL (≈ 0.135 µM) and the MIC (Bacillus subtilis LRP 25) was 0.049 µg/mL (≈ 0.0683 µM). For the same compound, the MIC [22] was 0.024 µg/mL (≈ 0.0334 µM), the MBC/MIC [23] was 32 and the MBC ([23]; Staphylococcus aureus, ATCC6538, read-out: Minimum bactericidal concentration (MBC)) was 6.25 µg/mL (≈ 8.71 µM). The MBC/MIC [24] was 8, the MBC ([24]; Streptococcus pyogenes, ATCC8668, read-out: Minimum bactericidal concentration (MBC)) was 0.195 µg/mL (≈ 0.272 µM) and the MBC/MIC [25] was 4. It also gave an MBC ([25]; Streptococcus pneumoniae, ATCC6303, read-out: Minimum bactericidal concentration (MBC)) of 0.195 µg/mL (≈ 0.272 µM), an MBC/MIC [26] of 16 and an MBC ([26]; Corynebacterium, LRP24, read-out: Minimum bactericidal concentration (MBC)) of 0.195 µg/mL (≈ 0.272 µM). It also gave an MBC/MIC [27] of 16, an MBC ([27]; Enterococcus faecalis, read-out: Minimum bactericidal concentration (MBC)) of 6.25 µg/mL (≈ 8.71 µM) and an MIC [28] of 0.195 µg/mL (≈ 0.272 µM). It also gave an MIC [29] of 0.024 µg/mL (≈ 0.0334 µM), an MIC [30] of 0.049 µg/mL (≈ 0.0683 µM) and an MIC [31] of 0.39 µg/mL (≈ 0.543 µM). It also gave an MIC [32] of 0.012 µg/mL (≈ 0.0167 µM), an MIC [33] of 1.56 µg/mL (≈ 2.17 µM) and an MIC (Salmonella typhy LRP 8) of 25 µg/mL (≈ 34.8 µM).
